Key:
[1] = tested on: bcl-2 G-quadruplex DNA (DNA, G4) CGGGCGCGGGAGGAAGGGGGCGGGAGC; test: CD melting at 280 nm; settings: 100 mM KCl; 10 mM Tris-HCl, pH 7.4; 10 μM complex, 100 μM DNA
[2] = tested on: bcl-2 G-quadruplex DNA (DNA, G4) CGGGCGCGGGAGGAAGGGGGCGGGAGC; test: UV-vis absorption titration; settings: 100 mM KCl; 10 mM Tris-HCl, pH 7.4; 20 μM complex; intrinsic binding constant

ΔTm [1]: 4.2 °C
K [2]: ~ 2.94 × 10^6 M^-1
Structure (SMILES): Clc1ccc(-c2nc3c4cccnc4c4ncccc4c3[nH]2)cc1.[Cl-].[Ru+2].c1ccccc1

— article PMC5503023 (2016)
